Test results as given in patent US20110275577A1, “METHODS OF TREATING DERMATOLOGIC, GYNECOLOGIC, AND GENITAL DISORDERS WITH CAFFEIC ACID ANALOGS” (Moleculin, LLC, priority 2010, published 2011).

System: psoriasis patients
Assay: Human Psoriasis Study of WP1220 and CABE (pilot study)
Assay type: in vivo
Details: topical treatment; psoriasis patients not responsive to current standard therapies
Experimental: Human Psoriasis Study of WP1220 and CABE—The compounds WP1220 and CABE were tested in a pilot study of psoriasis patients who were not responsive to current standard therapies.

Compound: C[C@H](NC(=O)/C(C#N)=C/C=C/c1cccc(Br)n1)c1ccccc1 [WP1220, (2E,4E)-5-(6-bromopyridin-2-yl)-2-cyano-N—((S)-1-phenylethyl)penta-2,4-dienamide]
- patients responded with substantial improvement or complete resolution of psoratic lesions: seven out of seven

Compound: O=C(/C=C/c1ccc(O)c(O)c1)OCc1ccccc1 [CABE, (E)-Benzyl 3-(3,4-dihydroxyphenyl)acrylate]
- patients responded with substantial improvement or complete resolution of psoratic lesions: five out of seven
